Peptide text beside a SMILES is read from it. * marks the point of attachment. For = O=C*
Columns and labels:
mouse Fpr3 (Fpr-rs1) [1] = molecular target: T1, mouse Fpr3 (Fpr-rs1) (Mus musculus, UniProt O08790); test: Concentration-response Ca2+ imaging of Fpr3-transfected HEK293T cells (Fig. 2f, h, j); assay type: cell-based; details: for EC50: Ca2+ responses of Fpr3-transfected HEK293T, Fluo-4/AM, FLIPR, buffer C1 pH 7.2, Fig. 2f, h, j
T1 construct: expressed in transfected cells; host or cells: HEK293T (DSMZ # ACC-635), transient transfection with jetPEI
T1 sequence (O08790 1-351): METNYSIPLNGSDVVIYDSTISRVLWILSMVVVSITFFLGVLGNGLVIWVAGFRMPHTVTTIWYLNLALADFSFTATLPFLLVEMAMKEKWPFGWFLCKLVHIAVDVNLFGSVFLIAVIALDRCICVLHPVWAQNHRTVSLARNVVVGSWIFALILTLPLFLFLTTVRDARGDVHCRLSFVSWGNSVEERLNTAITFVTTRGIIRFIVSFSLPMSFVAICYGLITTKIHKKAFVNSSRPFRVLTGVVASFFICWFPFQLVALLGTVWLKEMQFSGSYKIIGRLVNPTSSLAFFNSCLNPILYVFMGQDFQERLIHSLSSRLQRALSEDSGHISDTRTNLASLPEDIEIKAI
Experimental: (§1) An Fpr3 gene subcloned from genomic DNA of C57BL/6J mice into pcDNA3.1 (Invitrogen) was used in heterologous experiments[21],[80]. HEK293T (DSMZ # ACC-635) cells were seeded at 20–30% confluence on poly-D-lysine-coated (10 µg/ml in PBS) black 96-well µCLEAR-Plates (Greiner Bio-One). Cells were transfected 24 h later using jetPEI™ (Polyplus-transfection SA) according to the manufacturer’s protocol for 96-well transfections. For Ca^2+ imaging experiments, 0.125 µg of DNA plasmid encoding Fpr3 were cotransfected with equal amounts of a plasmid encoding Gα16, a promiscuous G protein α-subunit. Ca^2+ signals to agonist stimulation were recorded 48 h post transfection using the Ca^2+ indicator dye Fluo-4/AM (Molecular Probes) and a fluorescence imaging plate reader (FLIPR) system (Molecular Devices).
We used custom-made peptides with a length of 6–21 amino acids to screen for agonists. Sequences of fMet peptides were designed according to motifs present at the N-termini of 15,125 specific bacterial proteins as annotated in UniProt. Peptides were chemically synthesised, purified, and verified by mass spectroscopy (MALDI-TOF) by commercial suppliers. […] Source, sequence and purity of each peptide are listed in Supplementary Data 1. Lyophilised peptides were routinely dissolved in the Ca^2+ imaging assay buffer C1 (130 mM NaCl, 10 mM HEPES, 5 mM KCl, 2 mM CaCl2, 5 mM glucose, pH 7.2) as 0.2–1 mM stock solutions and kept in small aliquots at −20 °C until use.

mouse Fpr3 (Fpr-rs1) [2] = molecular target: T1, mouse Fpr3 (Fpr-rs1); test: Heterologous expression / high-throughput Ca2+ imaging agonist screen and sequence selectivity of Fpr3 (Fig. 1a, 2c-e, 2g, 2i); assay type: cell-based; details: 10 µM; Fpr3-transfected HEK293T; Fig. 2g
Experimental: as §1, with “Devices). Cotransfection of a plasmid encoding Gα16 with an empty vector used to subclone Fpr3 gave no agonist-evoked Ca^2+ responses.” for “Devices).”
We used custom-made peptides with a length of 6–21 amino acids to screen for agonists. Sequences of fMet peptides were designed according to motifs present at the N-termini of 15,125 specific bacterial proteins as annotated in UniProt. Peptides were chemically synthesised, purified, and verified by mass spectroscopy (MALDI-TOF) by commercial suppliers. Purity of all peptides was >95%. Source, sequence and purity of each peptide are listed in Supplementary Data 1. Lyophilised peptides were routinely dissolved in the Ca^2+ imaging assay buffer C1 (130 mM NaCl, 10 mM HEPES, 5 mM KCl, 2 mM CaCl2, 5 mM glucose, pH 7.2) as 0.2–1 mM stock solutions and kept in small aliquots at −20 °C until use. […] The sequences of these peptides exist in proteins from the following bacterial strains[21]: Psychromonas ingrahamii that belongs to a marine ice water microbial community, Desulfotomaculum reducens that is found in deep freshwater lakes, and Pseudomonas grimontii, a plant pathogen. As mice are unlikely to encounter these strains in their natural habitat, these findings are probably not of biological relevance.

Compound	EC50 (mouse Fpr3 (Fpr-rs1) [1])	Fpr3 activation by MgrB 9-, 12- and 21-residue variants, in words (mouse Fpr3 (Fpr-rs1) [2])	signals in concentration-response, in words (mouse Fpr3 (Fpr-rs1) [1]; Fpr3-transfected HEK293T, Fig. 2h)
CC[C@H](C)[C@H](NC(=O)CNC(=O)[C@H](CC(C)C)NC(=O)[C@@H](NC(=O)[C@@H](NC(=O)[C@H](Cc1c[nH]c2ccccc12)NC(=O)[C@H](CCCNC(=N)N)NC(=O)[C@H](Cc1ccccc1)NC(=O)[C@H](CCCCN)NC(=O)[C@H](CCCCN)NC(=O)[C@H](CCSC)NC=O)C(C)C)C(C)C)C(=O)N[C@H](C(=O)O)C(C)C (For-MKKFRWVVLGIV-OH)	0.21 µM	–	–
f-MKKFRWVVLGIVVVVCLLLWAQ [21-mer peptide]	–	failed to activate Fpr3	No signals were obtained
CC[C@H](C)[C@H](NC(=O)[C@H](CO)NC(=O)[C@H](Cc1c[nH]c2ccccc12)NC(=O)[C@H](CCCCN)NC(=O)[C@H](Cc1ccccc1)NC(=O)[C@H](CCCCN)NC(=O)[C@H](CCCCN)NC(=O)[C@H](CCSC)NC=O)C(=O)O (For-MKKFKWSI-OH)	0.8 µM	–	–
